Experimental data taken from patent US10494366B2, “Pesticidally active amide heterocyclic derivatives with sulphur containing substituents” (Syngenta Participations AG, priority 2014, dated 2019).

What was measured:
Type in all cases: in vivo
[1] = test system: Spodoptera littoralis (Egyptian cotton leaf worm); assay: Example B1: Spodoptera littoralis, sprayed cotton leaf discs; conditions: foliar, 72 h, application rate 200 ppm, L1 larvae, 3 days after infestation, read-out: control in at least one of the three categories (mortality, anti-feedancy or growth inhibition)
Experimental: Cotton leaf discs were placed on agar in 24-well microtiter plates and sprayed with aqueous test solutions prepared from 10,000 ppm DMSO stock solutions. After drying the leaf discs were infested with five L1 larvae. The samples were assessed for mortality, anti-feedant effect, and growth inhibition in comparison to untreated samples 3 days after infestation. Control of Spodoptera littoralis by a test sample is when at least one of mortality, anti-feedant effect, and growth inhibition is higher than the untreated sample.

[2] = test system: Plutella xylostella (diamond back moth); assay: Example B3: Plutella xylostella, treated artificial diet; conditions: 120 h, application rate 200 ppm, L2 larvae, 5 days after infestation, read-out: effect in at least one of the two categories (mortality or growth inhibition)
Experimental: (§1) 24-well microtiter plates with artificial diet were treated with aqueous test solutions prepared from 10,000 ppm DMSO stock solutions by pipetting. After drying, the plates were infested with L2 larvae (10 to 15 per well). The samples were assessed for mortality and growth inhibition in comparison to untreated samples 5 days after infestation.

[3] = test system: Diabrotica balteata (corn root worm); assay: Example B4: Diabrotica balteata, sprayed maize sprouts; conditions: 96 h, application rate 200 ppm, L2 larvae, 4 days after infestation, read-out: effect in at least one of the two categories (mortality or growth inhibition)
Experimental: as §1, with “Maize sprouts, placed on an agar layer in 24-well” for “24-well”, “plates” for “plates with artificial diet”, “spraying.” for “pipetting.”, “(6” for “(10”, “10” for “15”, “4” for “5”

[4] = test system: Spodoptera littoralis (Egyptian cotton leaf worm); assay: Example B2: Spodoptera littoralis, systemic test via lettuce roots in agar; conditions: 144 h, application rate 12.5 ppm, Spodoptera eggs, 6 days after infestation, read-out: control in at least one of the three categories (mortality, anti-feedancy or growth inhibition)
Source text: Test compounds were applied by pipette from 10,000 ppm DMSO stock solutions into 24-well plates and mixed with agar. Lettuce seeds were placed on the agar and the multi well plate was closed by another plate which contains also agar. After 7 days the roots have absorbed the compound and the lettuce has grown into the lid plate. The lettuce leafs were now cut off into the lid plate. Spodoptera eggs were pipetted through a plastic stencil on a humid gel blotting paper and the plate closed with it. The samples were assessed for mortality, anti-feedant effect and growth inhibition in comparison to untreated samples 6 days after infestation.
The following compounds gave an effect of at least 80% control in at least one of the three categories (mortality, anti-feedancy or growth inhibition) at an application rate of 12.5 ppm: P2, P3, P8, P9, P11 and P17, P19, P20, P22, P23, P25, P26, P28, P30, P31, P32, P33, P40, P42, P43, P44, P45, P46, P47, P48, P49, P50, P51, P52, P53, P54, P60 and P61.

[5] = test system: Euschistus heros (neotropical brown stink bug); assay: Example B6: Euschistus heros, sprayed soybean leaf; conditions: 120 h, application rate 200 ppm, N-2 nymphs, 5 days after infestation
Source text: Soybean leaf on agar in 24-well microtiter plates were sprayed with aqueous test solutions prepared from 10,000 ppm DMSO stock solutions. After drying the leaf were infested with N-2 nymphs.

CCS(=O)(=O)c1ccc(-c2cnc(C(=O)/N=c3\sc(C(F)(F)F)nn3C)c(S(=O)(=O)CC)c2)cc1 [Compound P4]
≥ 80%: percent control (mortality, anti-feedant effect or growth inhibition) at 200 ppm [1] | percent effect (mortality or growth inhibition) at 200 ppm [2] | percent effect (mortality or growth inhibition) at 200 ppm [3]

CCS(=O)(=O)c1cc(-n2ccc(C(F)(F)F)n2)cnc1C(=O)/N=c1\sc(C(F)(F)C(F)(F)F)nn1C [Compound P9, (N)-3-ethylsulfonyl-N-[3-methyl-5-(1,1,2,2,2-pentafluoroethyl)-1,3,4-thiadiazol-2-ylidene]-5-[3-(trifluoromethyl)pyrazol-1-yl]pyridine-2-carboxamide]
≥ 80%: percent control (mortality, anti-feedant effect or growth inhibition) at 200 ppm [1] | percent control (mortality, anti-feedant effect or growth inhibition) at 12.5 ppm [4] | percent effect (mortality or growth inhibition) at 200 ppm [2] | percent effect (mortality or growth inhibition) at 200 ppm [3]

CCSc1cc(-c2ccc(Cl)cc2)cnc1C(=O)/N=c1\sc(C(F)(F)C(F)(F)F)nn1C [Compound P12]
≥ 80%: percent effect (mortality or growth inhibition) at 200 ppm [3]

CCSc1cc(-n2ccc(C(F)(F)F)n2)cnc1C(=O)/N=c1\sc(C(F)(F)F)nn1C [Compound P13]
≥ 80%: percent effect (mortality or growth inhibition) at 200 ppm [3]

CCS(=O)(=O)c1cc(-n2ccc(C(F)(F)F)n2)cnc1C(=O)/N=c1\sc(C(F)(F)F)nn1C [Compound P14]
≥ 80%: percent control (mortality, anti-feedant effect or growth inhibition) at 200 ppm [1] | percent effect (mortality or growth inhibition) at 200 ppm [2] | percent effect (mortality or growth inhibition) at 200 ppm [3]

CCSc1cc(-c2ccc(C(F)(F)F)cc2)cnc1C(=O)N=c1ccc(SC(F)(F)F)cn1C [Compound P15]
≥ 80%: percent effect (mortality or growth inhibition) at 200 ppm [3]

CCS(=O)(=O)c1ccc(-c2ccc(C(F)(F)F)cc2)nc1C(=O)/N=c1\sc(C(F)(F)F)nn1C [Compound P21, (N)-3-ethylsulfonyl-N-[3-methyl-5-(trifluoromethyl)-1,3,4-thiadiazol-2-ylidene]-6-[4-(trifluoromethyl)phenyl]pyridine-2-carboxamide]
≥ 80%: percent control (mortality, anti-feedant effect or growth inhibition) at 200 ppm [1]

CCS(=O)(=O)c1cc(-c2ccc(OC(F)(F)F)cc2)cnc1C(=O)/N=c1\sc(C(F)(F)F)nn1C [Compound P22]
≥ 80%: percent control (mortality, anti-feedant effect or growth inhibition) at 200 ppm [1] | percent control (mortality, anti-feedant effect or growth inhibition) at 12.5 ppm [4] | percent effect (mortality or growth inhibition) at 200 ppm [2] | percent effect (mortality or growth inhibition) at 200 ppm [3]

CCS(=O)(=O)c1cc(-c2cccc(C#N)c2)cnc1C(=O)/N=c1\sc(C(F)(F)F)nn1C [Compound P23]
≥ 80%: percent control (mortality, anti-feedant effect or growth inhibition) at 200 ppm [1] | percent control (mortality, anti-feedant effect or growth inhibition) at 12.5 ppm [4] | percent effect (mortality or growth inhibition) at 200 ppm [2] | percent effect (mortality or growth inhibition) at 200 ppm [3] | mortality at 200 ppm [5]

CCS(=O)(=O)c1cc(-c2cc(Cl)cc(Cl)c2)cnc1C(=O)/N=c1\sc(C(F)(F)F)nn1C [Compound P24]
≥ 80%: percent control (mortality, anti-feedant effect or growth inhibition) at 200 ppm [1]

CCS(=O)(=O)c1cc(-c2ccc(F)cc2F)cnc1C(=O)/N=c1\sc(C(F)(F)F)nn1C [Compound P25]
≥ 80%: percent control (mortality, anti-feedant effect or growth inhibition) at 200 ppm [1] | percent control (mortality, anti-feedant effect or growth inhibition) at 12.5 ppm [4] | percent effect (mortality or growth inhibition) at 200 ppm [2] | percent effect (mortality or growth inhibition) at 200 ppm [3] | mortality at 200 ppm [5]

CCS(=O)(=O)c1cc(-c2cccc(F)c2)cnc1C(=O)/N=c1\sc(C(F)(F)F)nn1C [Compound P26]
≥ 80%: percent control (mortality, anti-feedant effect or growth inhibition) at 200 ppm [1] | percent control (mortality, anti-feedant effect or growth inhibition) at 12.5 ppm [4] | percent effect (mortality or growth inhibition) at 200 ppm [2] | percent effect (mortality or growth inhibition) at 200 ppm [3] | mortality at 200 ppm [5]

CCS(=O)(=O)c1cc(-c2cc(Cl)c(F)c(Cl)c2)cnc1C(=O)/N=c1\sc(C(F)(F)F)nn1C [Compound P27]
≥ 80%: percent control (mortality, anti-feedant effect or growth inhibition) at 200 ppm [1] | percent effect (mortality or growth inhibition) at 200 ppm [2] | percent effect (mortality or growth inhibition) at 200 ppm [3]

CCS(=O)(=O)c1cc(-c2cccc(SC)c2)cnc1C(=O)/N=c1\sc(C(F)(F)F)nn1C [Compound P30]
≥ 80%: percent control (mortality, anti-feedant effect or growth inhibition) at 12.5 ppm [4] | percent effect (mortality or growth inhibition) at 200 ppm [3]

CCS(=O)(=O)c1cc(-c2ccc(Cl)cc2Cl)cnc1C(=O)/N=c1\sc(C(F)(F)F)nn1C [Compound P34]
≥ 80%: percent control (mortality, anti-feedant effect or growth inhibition) at 200 ppm [1] | percent effect (mortality or growth inhibition) at 200 ppm [2] | percent effect (mortality or growth inhibition) at 200 ppm [3] | mortality at 200 ppm [5]

CCS(=O)(=O)c1cc(-c2cc(F)cc(F)c2)cnc1C(=O)/N=c1\sc(C(F)(F)F)nn1C [Compound P35]
≥ 80%: percent control (mortality, anti-feedant effect or growth inhibition) at 200 ppm [1] | percent effect (mortality or growth inhibition) at 200 ppm [2] | percent effect (mortality or growth inhibition) at 200 ppm [3]

CCS(=O)(=O)c1cc(-c2ccc(Cl)c(Cl)c2)cnc1C(=O)/N=c1\sc(C(F)(F)F)nn1C [Compound P36]
≥ 80%: percent control (mortality, anti-feedant effect or growth inhibition) at 200 ppm [1] | percent effect (mortality or growth inhibition) at 200 ppm [2] | percent effect (mortality or growth inhibition) at 200 ppm [3]

CCS(=O)(=O)c1cc(-c2cccc(C(F)(F)F)c2)cnc1C(=O)/N=c1\sc(C(F)(F)F)nn1C [Compound P37]
≥ 80%: percent control (mortality, anti-feedant effect or growth inhibition) at 200 ppm [1] | percent effect (mortality or growth inhibition) at 200 ppm [2] | percent effect (mortality or growth inhibition) at 200 ppm [3]

CCS(=O)(=O)c1cc(-c2ccc(SC)cc2)cnc1C(=O)/N=c1\sc(C(F)(F)F)nn1C [Compound P38]
≥ 80%: percent control (mortality, anti-feedant effect or growth inhibition) at 200 ppm [1] | percent effect (mortality or growth inhibition) at 200 ppm [2] | percent effect (mortality or growth inhibition) at 200 ppm [3]

CCS(=O)(=O)c1cc(-c2cc(Cl)ccn2)cnc1C(=O)/N=c1\sc(C(F)(F)F)nn1C [Compound P41]
≥ 80%: percent control (mortality, anti-feedant effect or growth inhibition) at 200 ppm [1] | percent effect (mortality or growth inhibition) at 200 ppm [2] | percent effect (mortality or growth inhibition) at 200 ppm [3] | mortality at 200 ppm [5]

CCS(=O)(=O)c1cc(-c2ncc(C(F)(F)F)s2)cnc1C(=O)/N=c1\sc(C(F)(F)F)nn1C [Compound P58]
≥ 80%: percent control (mortality, anti-feedant effect or growth inhibition) at 200 ppm [1] | percent effect (mortality or growth inhibition) at 200 ppm [3]

CCS(=O)(=O)c1cc(-c2cc(C#N)ccn2)cnc1C(=O)/N=c1\sc(C(F)(F)F)nn1C [Compound P62]
≥ 80%: percent control (mortality, anti-feedant effect or growth inhibition) at 200 ppm [1] | percent effect (mortality or growth inhibition) at 200 ppm [2] | mortality at 200 ppm [5]

CCS(=O)(=O)c1cc(-c2ncc(Cl)cn2)cnc1C(=O)/N=c1\sc(C(F)(F)F)nn1C [Compound P65]
≥ 80%: percent control (mortality, anti-feedant effect or growth inhibition) at 200 ppm [1] | percent effect (mortality or growth inhibition) at 200 ppm [2] | percent effect (mortality or growth inhibition) at 200 ppm [3] | mortality at 200 ppm [5]

CCS(=O)(=O)c1cc(-c2cc(F)cc(F)c2)cnc1C(=O)/N=c1\sc(C(F)(F)C(F)(F)F)nn1C [Compound P67]
≥ 80%: percent effect (mortality or growth inhibition) at 200 ppm [2] | percent effect (mortality or growth inhibition) at 200 ppm [3] | mortality at 200 ppm [5]

CCS(=O)(=O)c1cc(-c2ncc(C#N)cn2)cnc1C(=O)/N=c1\sc(C(F)(F)F)nn1C [Compound P68]
≥ 80%: percent effect (mortality or growth inhibition) at 200 ppm [2] | percent effect (mortality or growth inhibition) at 200 ppm [3] | mortality at 200 ppm [5]

CCS(=O)(=O)c1cc(-c2ccc(C#N)cn2)cnc1C(=O)/N=c1\sc(C(F)(F)F)nn1C [Compound P69]
≥ 80%: percent control (mortality, anti-feedant effect or growth inhibition) at 200 ppm [1] | percent effect (mortality or growth inhibition) at 200 ppm [2] | percent effect (mortality or growth inhibition) at 200 ppm [3] | mortality at 200 ppm [5]
